Laboratory results published in patent US11622970B2, “BCL-2 inhibitors and their use as pharmaceuticals” (PRELUDE THERAPEUTICS INCORPORATED, priority 2020, dated 2023).

Each compound was assayed against BCL-2 recombinant protein (Homo sapiens, UniProt P10415) (assay: Cell free Bcl-2:Bak affinity assay (Bcl-2 Bak), HTRF competition of FAM-Bak peptide). Settings: 1 μM compound, 4 nM BCL-2 recombinant protein, 100 nM FAM-Bak, read-out: potency (% inhibition at 1 μM).
Type: binding
Description: Biological Assays: Cell Free Bcl-2:Bak Affinity Assay (Bcl-2 Bak)
The assay is based on the competition of fluorescently labeled peptide binding to BCL-2 and the binding is monitored by HTRF signals between anti-GST-Tb and FAM-peptide using GST-Tag BCL proteins. Testing compounds were dissolved in DMSO at 10 mM and tested in 10-concentration IC50 mode. The compounds of interest in DMSO were added in 3-fold serial dilution to each well containing 4 nM of BCL-2 recombinant protein, 20 mM K Phosphate, pH 7.5, 50 mM NaCl, 1 mM EDTA, 0.005% Triton X-100, by using acoustic technology (Labcyte echo 550), After 10 minutes incubation at room temperature, 100 nM of FAM-Bak was added and incubated for another 10 minutes before addition of Anti-GST-Tb. The plate was then sealed and further incubated at room temperature for 60 minutes in the dark before reading. Percentage of inhibition was calculated by % inhibition=100×(FDMSO−F)/(FDMSO−FPC), in which FDMSO is DMSO control and FPC is a positive control. IC50 values were determined from dose-response curve by fitting the percent inhibition against compound concentration using GraphPad Prism software.

Chain of BCL-2 recombinant protein (P10415 whole entry): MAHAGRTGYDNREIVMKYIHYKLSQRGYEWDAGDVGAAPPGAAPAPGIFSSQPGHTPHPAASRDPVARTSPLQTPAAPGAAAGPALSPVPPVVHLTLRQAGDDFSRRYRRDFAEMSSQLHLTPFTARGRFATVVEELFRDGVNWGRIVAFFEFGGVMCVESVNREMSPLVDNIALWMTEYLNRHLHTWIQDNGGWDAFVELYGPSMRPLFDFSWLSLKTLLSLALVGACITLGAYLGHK

Row | inhibition at 1 µM | Structure (SMILES)
1 | 50 to 90% | CC1(C)CCC(CN2CCN(c3ccc(S(=O)(=O)NC(=O)c4ccc([N+](=O)[O-])c(OCc5ccccc5)c4)cc3)CC2)=C(c2ccc(Cl)cc2)C1 [Example 40, 3-(benzyloxy)-N-([4-[4-[[2-(4-chlorophenyl)-4,4-dimethylcyclohexen-1-yl]methyl]piperazin-1-yl]phenyl]sulfonyl)-4-nitrobenzamide]
2 | 50 to 90% | CC1(C)CCC(CN2CCN(c3ccc(S(=O)(=O)NC(=O)c4cc([N+](=O)[O-])c(NCC5CCOCC5)cc4Cl)cc3)CC2)=C(c2ccc(Cl)cc2)C1 [Example 41, 2-Chloro-N-[4-[4-[[2-(4-chlorophenyl)-4,4-dimethylcyclohexen-1-yl]methyl]piperazin-1-yl]phenyl]sulfonyl-5-nitro-4-(tetrahydropyran-4-ylmethylamino)benzamide]
3 | > 90% | Cc1c(Cl)c(C(=O)NS(=O)(=O)c2ccc(N3CCN(CC4=C(c5ccc(Cl)cc5)CC(C)(C)CC4)CC3)cc2)cc([N+](=O)[O-])c1NCC1CCOCC1 [Example 42, 2-Chloro-N-([4-[4-[[2-(4-chlorophenyl)-4,4-dimethylcyclohexen-1-yl]methyl]piperazin-1-yl]phenyl]sulfonyl)-3-methyl-5-nitro-4-(tetrahydropyran-4-ylmethylamino)benzamide]
4 | 50 to 90% | Cc1nn(C)c(C)c1-c1nc(C(=O)NS(=O)(=O)c2ccc(N3CCN(CC4=C(c5ccc(Cl)cc5)CC(C)(C)CC4)CC3)cc2)ccc1F [Example 44, N-[4-[4-[[2-(4-chlorophenyl)-4,4-dimethylcyclohexen-1-yl]methyl]piperazin-1-yl]phenyl]sulfonyl-5-fluoro-6-(1,3,5-trimethylpyrazol-4-yl)pyridine-2-carboxamide]
5 | 50 to 90% | Cn1cc(-c2nc(C(=O)NS(=O)(=O)c3ccc(N4CCN(CC5=C(c6ccc(Cl)cc6)CC(C)(C)CC5)CC4)cc3)ccc2F)cn1 [Example 45, N-[4-[4-[[2-(4-chlorophenyl)-4,4-dimethylcyclohexen-1-yl]methyl]piperazin-1-yl]phenyl]sulfonyl-5-fluoro-6-(1-methyl-1H-pyrazol-4-yl)pyridine-2-carboxamide]
6 | 50 to 90% | CC1(C)CCC(CN2CCN(c3ccc(S(=O)(=O)NC(=O)c4ccc(F)c(-n5ccnc5)n4)cc3)CC2)=C(c2ccc(Cl)cc2)C1 [Example 46, N-[4-[4-[[2-(4-chlorophenyl)-4,4-dimethylcyclohexen-1-yl]methyl]piperazin-1-yl]phenyl]sulfonyl-5-fluoro-6-(1H-imidazol-1-yl)pyridine-2-carboxamide]
7 | 50 to 90% | CC1(C)CCC(CN2CCN(c3ccc(S(=O)(=O)NC(=O)c4ccc(F)c(-c5cnc6c(c5)CC(=O)N6)n4)cc3)CC2)=C(c2ccc(Cl)cc2)C1 [Example 47, N-[4-[4-[[2-(4-chlorophenyl)-4,4-dimethylcyclohexen-1-yl]methyl]piperazin-1-yl]phenyl]sulfonyl-5-fluoro-6-(2-oxo-2,3-dihydro-1H-pyrrolo[2,3-b]pyridin-5-yl)pyridine-2-carboxamide]
8 | 50 to 90% | CC1(C)CCC(CN2CCN(c3ccc(S(=O)(=O)NC(=O)c4ccc(F)c(-c5ccc6[nH]ncc6c5)n4)cc3)CC2)=C(c2ccc(Cl)cc2)C1 [Example 48, N-[4-[4-[[2-(4-chlorophenyl)-4,4-dimethylcyclohexen-1-yl]methyl]piperazin-1-yl]phenyl]sulfonyl-5-fluoro-6-(1H-indazol-5-yl)pyridine-2-carboxamide]
9 | > 90% | CC1(C)CCC(CN2CCN(c3ccc(S(=O)(=O)NC(=O)c4ccc(F)c(-c5ccc6[nH]nnc6c5)n4)cc3)CC2)=C(c2ccc(Cl)cc2)C1 [Example 49, 6-(1H-benzo[d][1,2,3]triazol-5-yl)-N-[4-[4-[[2-(4-chlorophenyl)-4,4-dimethylcyclohexen-1-yl]methyl]piperazin-1-yl]phenyl]sulfonyl-5-fluoro pyridine-2-carboxamide]
10 | 50 to 90% | Cn1ncc2cc(-c3nc(C(=O)NS(=O)(=O)c4ccc(N5CCN(CC6=C(c7ccc(Cl)cc7)CC(C)(C)CC6)CC5)cc4)ccc3F)ccc21 [Example 50, N-[4-[4-[[2-(4-chlorophenyl)-4,4-dimethylcyclohexen-1-yl]methyl]piperazin-1-yl]phenyl]sulfonyl-5-fluoro-6-(1-methyl-1H-indazol-5-yl)pyridine-2-carboxamide]
11 | 50 to 90% | CC1(C)CCC(CN2CCN(c3ccc(S(=O)(=O)NC(=O)c4ccc([N+](=O)[O-])c(OCc5ccccc5)n4)cc3)CC2)=C(c2ccc(Cl)cc2)C1 [Example 51, 6-(benzyloxy)-N-[4-[4-[[2-(4-chlorophenyl)-4,4-dimethylcyclohexen-1-yl]methyl]piperazin-1-yl]phenyl]sulfonyl-5-nitropyridine-2-carboxamide]
12 | 50 to 90% | CC1(C)CCC(CN2CCN(c3ccc(S(=O)(=O)NC(=O)c4ccc(COc5ccccc5)c([N+](=O)[O-])c4)cc3)CC2)=C(c2ccc(Cl)cc2)C1 [Example 52, N-[4-[4-[[2-(4-chlorophenyl)-4,4-dimethylcyclohexen-1-yl]methyl]piperazin-1-yl]phenyl]sulfonyl-3-nitro-4-(phenoxymethyl)benzamide]
13 | 50 to 90% | CC1(C)CCC(CN2CCN(c3ccc(S(=O)(=O)NC(=O)c4ccc(F)c(OCc5ccccc5)c4)cc3)CC2)=C(c2ccc(Cl)cc2)C1 [Example 53, 3-(benzyloxy)-N-[4-[4-[[2-(4-chlorophenyl)-4,4-dimethylcyclohexen-1-yl]methyl]piperazin-1-yl]phenyl]sulfonyl-4-fluorobenzamide]
14 | 50 to 90% | CNc1c([N+](=O)[O-])cc(C(=O)NS(=O)(=O)c2ccc(N3CCN(CC4=C(c5ccc(Cl)cc5)CC(C)(C)CC4)CC3)cc2)c(Cl)c1C [Example 54, 2-chloro-N-[4-[4-[[2-(4-chlorophenyl)-4,4-dimethylcyclohexen-1-yl]methyl]piperazin-1-yl]phenyl]sulfonyl-4-(methylamino)-3-methyl-5-nitrobenzamide]
15 | 50 to 90% | COc1cc(-c2nc(C(=O)NS(=O)(=O)c3ccc(N4CCN(CC5=C(c6ccc(Cl)cc6)CC(C)(C)CC5)CC4)cc3)ccc2F)ccn1 [Example 55, N-[4-[4-[[2-(4-Chlorophenyl)-4,4-dimethylcyclohexen-1-yl]methyl]piperazin-1-yl]phenyl]sulfonyl-5-fluoro-6-(2-methoxypyridin-4-yl)pyridine-2-carboxamide]
16 | 50 to 90% | Cn1ccc(-c2nc(C(=O)NS(=O)(=O)c3ccc(N4CCN(CC5=C(c6ccc(Cl)cc6)CC(C)(C)CC5)CC4)cc3)ccc2F)cc1=O [Example 56, N-[4-[4-[[2-(4-Chlorophenyl)-4,4-dimethylcyclohexen-1-yl]methyl]piperazin-1-yl]phenyl]sulfonyl-3-fluoro-1′-methyl-2′-oxo-1′,2′-dihydro-[2,4′-bipyridine]-6-carboxamide]
17 | 50 to 90% | COc1ncc(-c2nc(C(=O)NS(=O)(=O)c3ccc(N4CCN(CC5=C(c6ccc(Cl)cc6)CC(C)(C)CC5)CC4)cc3)ccc2F)cn1 [Example 57, N-[4-[4-[[2-(4-Chlorophenyl)-4,4-dimethylcyclohexen-1-yl]methyl]piperazin-1-yl]phenyl]sulfonyl-5-fluoro-6-(2-methoxypyrimidin-5-yl)pyridine-2-carboxamide]
18 | 50 to 90% | Cn1cc(-c2nc(C(=O)NS(=O)(=O)c3ccc(N4CCN(CC5=C(c6ccc(Cl)cc6)CC(C)(C)CC5)CC4)cc3)ccc2F)ccc1=O [Example 58, N-[4-[4-[[2-(4-Chlorophenyl)-4,4-dimethylcyclohexen-1-yl]methyl]piperazin-1-yl]phenyl]sulfonyl-3-fluoro-1′-methyl-6′-oxo-1′,6′-dihydro-[2,3′-bipyridine]-6-carboxamide]

Same assay, conditions: 10-concentration IC50 mode, 4 nM BCL-2 recombinant protein, 100 nM FAM-Bak, read-out: potency (IC50)

Row | IC50 | Structure (SMILES)
19 | 10 to 100 nM | CC1(C)CCC(CN2CCN(c3ccc(S(=O)(=O)NC(=O)c4ccc(F)c(COc5ccc(Cl)cc5)c4)cc3)CC2)=C(c2ccc(Cl)cc2)C1 [Example 37, N-([4-[4-[[2-(4-chlorophenyl)-4,4-dimethylcyclohexen-1-yl]methyl]piperazin-1-yl]phenyl]sulfonyl)-3-((4-chlorophenoxy)methyl)-4-fluorobenzamide]
20 | 10 to 100 nM | CC1(C)CCC(CN2CCN(c3ccc(S(=O)(=O)NC(=O)c4ccc([N+](=O)[O-])c(COc5ccc(Cl)cc5)c4)cc3)CC2)=C(c2ccc(Cl)cc2)C1 [Example 38, N-([4-[4-[[2-(4-chlorophenyl)-4,4-dimethylcyclohexen-1-yl]methyl]piperazin-1-yl]phenyl]sulfonyl)-3-((4-chlorophenoxy)methyl)-4-nitrobenzamide]
21 | 10 to 100 nM | CC1(C)CCC(CN2CCN(c3ccc(S(=O)(=O)NC(=O)c4ccc(COc5ccc(Cl)cc5)c([N+](=O)[O-])c4)cc3)CC2)=C(c2ccc(Cl)cc2)C1 [Example 39, N-([4-[4-[[2-(4-chlorophenyl)-4,4-dimethylcyclohexen-1-yl]methyl]piperazin-1-yl]phenyl]sulfonyl)-4-((4-chlorophenoxy)methyl)-3-nitrobenzamide]
22 | 100 to 1000 nM | CCNc1c([N+](=O)[O-])cc(C(=O)NS(=O)(=O)c2ccc(N3CCN(CC4=C(c5ccc(Cl)cc5)CC(C)(C)CC4)CC3)cc2)c(Cl)c1C [Example 43, 2-chloro-N-[4-[4-[[2-(4-chlorophenyl)-4,4-dimethylcyclohexen-1-yl]methyl]piperazin-1-yl]phenyl]sulfonyl-4-(ethylamino)-3-methyl-5-nitrobenzamide]
